Assay results taken from PMC10518255, “A first-in-class pan-lysyl oxidase inhibitor impairs stromal remodeling and enhances gemcitabine response and survival in pancreatic cancer” (Nature Cancer, 2023).

How the values were obtained:
DAO = target: T1, DAO (Homo sapiens, UniProt P19801); assay: Substrate turnover by H2O2 release, amplex red coupled fluorometric activity assay (Extended Data Fig. 3a); format: biochemical
T1 sequence (P19801 20-751): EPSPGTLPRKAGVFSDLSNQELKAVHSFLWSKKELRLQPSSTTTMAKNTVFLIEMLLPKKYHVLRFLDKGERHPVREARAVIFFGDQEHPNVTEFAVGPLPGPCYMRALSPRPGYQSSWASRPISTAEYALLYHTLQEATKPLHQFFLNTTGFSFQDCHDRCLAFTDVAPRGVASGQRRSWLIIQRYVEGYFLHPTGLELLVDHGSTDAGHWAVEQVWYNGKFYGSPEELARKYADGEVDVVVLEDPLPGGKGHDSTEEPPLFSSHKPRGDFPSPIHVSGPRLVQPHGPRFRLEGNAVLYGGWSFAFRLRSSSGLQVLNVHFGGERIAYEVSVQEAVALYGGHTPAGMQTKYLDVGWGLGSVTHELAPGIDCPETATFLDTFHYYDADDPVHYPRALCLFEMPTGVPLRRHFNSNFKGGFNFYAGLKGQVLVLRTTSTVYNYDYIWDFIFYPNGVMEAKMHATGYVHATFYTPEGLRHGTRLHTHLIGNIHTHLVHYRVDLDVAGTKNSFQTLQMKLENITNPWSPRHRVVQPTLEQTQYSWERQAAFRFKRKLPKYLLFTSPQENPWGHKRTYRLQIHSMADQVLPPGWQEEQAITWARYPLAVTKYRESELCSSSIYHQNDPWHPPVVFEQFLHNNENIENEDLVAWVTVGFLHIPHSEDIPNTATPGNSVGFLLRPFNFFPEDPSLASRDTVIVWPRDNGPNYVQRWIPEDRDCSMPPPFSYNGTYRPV
Excerpt: (§1) Specifically, BAPN is oxidized by diamine oxidase (DAO) and semicarbazide-sensitive amine oxidase (SSAO)/vascular adhesion protein 1 (VAP-1) in the vasculature (Extended Data Fig. 3a), which releases hydrogen […] (H2O2) and aldehyde in humans leading to toxicity.
(§2) Data presented as mean values +/− SD. f. […] Data presented as mean values +/− SD. […] Data presented as mean values +/− SD. […] Data presented as mean values +/− SD. Ordinary one-way ANOVA for multiple comparison test performed. Source data

SSAO = target: T2, SSAO (Homo sapiens, UniProt Q16853); assay: as above; format: biochemical
T2 sequence (Q16853 1-763): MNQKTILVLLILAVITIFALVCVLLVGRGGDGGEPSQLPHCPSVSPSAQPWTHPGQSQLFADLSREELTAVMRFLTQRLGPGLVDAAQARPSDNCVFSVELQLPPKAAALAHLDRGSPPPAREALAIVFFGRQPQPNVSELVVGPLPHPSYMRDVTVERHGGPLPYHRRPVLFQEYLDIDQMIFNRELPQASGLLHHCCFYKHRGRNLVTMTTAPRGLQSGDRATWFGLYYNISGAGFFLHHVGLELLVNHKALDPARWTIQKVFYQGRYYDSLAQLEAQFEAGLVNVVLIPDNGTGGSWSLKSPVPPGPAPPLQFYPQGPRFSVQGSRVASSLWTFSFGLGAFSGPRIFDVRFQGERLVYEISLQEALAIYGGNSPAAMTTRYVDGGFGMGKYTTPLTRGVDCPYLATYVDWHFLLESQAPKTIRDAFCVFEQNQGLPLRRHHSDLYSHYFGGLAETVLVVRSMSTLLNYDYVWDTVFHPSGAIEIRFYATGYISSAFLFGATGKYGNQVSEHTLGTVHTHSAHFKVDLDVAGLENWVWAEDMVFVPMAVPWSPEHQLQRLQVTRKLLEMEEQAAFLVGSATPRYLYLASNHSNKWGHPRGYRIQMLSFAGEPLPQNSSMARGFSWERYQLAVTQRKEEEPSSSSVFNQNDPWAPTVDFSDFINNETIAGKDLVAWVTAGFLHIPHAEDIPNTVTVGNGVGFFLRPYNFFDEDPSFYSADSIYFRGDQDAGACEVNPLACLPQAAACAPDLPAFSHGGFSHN
Excerpt: as §1, §2

[1] = system: KPC CAF remodeled 3D collagen matrices; assay: Matrix stiffness by unconfined compression testing of organotypic matrices; format: cell-based, mouse; conditions: PXS-5120 100 nM, day 12
Experimental: Fig. 3 PXS-5505 inhibition of CAF remodeling in vitro. a, Quantitative PCR with reverse transcription (qRT–PCR) showing in vitro comparison of KPC CAF relative expression of lysyl oxidase family members compared to KPC CCs from the same model (n = 3 biologically independent samples). Comparisons were determined by 2^–∆∆Ct approach. b, Representative images of 3D organotypic matrix contraction assay at days 2, 6 and 12 in the absence (gray) or presence (pink) of PXS-5505 (30 µM). Scale bars, 5 mm. Comparison of measured area of matrices between control and PXS-5505 treatment groups over time (n = 3 technical samples examined over three biologically independent samples). Data are mean ± s.d. c, Concentration of immature divalent DHLNL and mature trivalent Pyr collagen crosslinks determined by LC–MS from control and PXS-5505-treated organotypic matrices at day 12 (n = 3 technical samples examined over two biologically independent samples). Data are mean ± s.d. […] Data are presented as mean ± s.d. […] Comparison of number of CCs invaded per field of view (FOV) as determined by H&E and PanCK staining (nine images taken from three technical samples from each of three biologically independent contracted matrices), normalized to control. Data are mean ± s.d. Scale bars, 100 μm. […] Source data […]

KPC CCs = assay: Cancer cell invasion into CAF-remodeled 3D organotypic matrices; format: cell-based, mouse; conditions: PXS-5120 100 nM
Experimental: Fig. 3 PXS-5505 inhibition of CAF remodeling in vitro. a, Quantitative PCR with reverse transcription (qRT–PCR) showing in vitro comparison of KPC CAF relative expression of lysyl oxidase family members compared to KPC CCs from the same model (n = 3 biologically independent samples). Comparisons were determined by 2^–∆∆Ct approach. b, Representative images of 3D organotypic matrix contraction assay at days 2, 6 and 12 in the absence (gray) or presence (pink) of PXS-5505 (30 µM). Scale bars, 5 mm. Comparison of measured area of matrices between control and PXS-5505 treatment groups over time (n = 3 technical samples examined over three biologically independent samples). Data are mean ± s.d. c, Concentration of immature divalent DHLNL and mature trivalent Pyr collagen crosslinks determined by LC–MS from control and PXS-5505-treated organotypic matrices at day 12 (n = 3 technical samples examined over two biologically independent samples). Data are mean ± s.d. […] Data are presented as mean ± s.d. […] Comparison of number of CCs invaded per field of view (FOV) as determined by H&E and PanCK staining (nine images taken from three technical samples from each of three biologically independent contracted matrices), normalized to control. Data are mean ± s.d. Scale bars, 100 μm. […] Source data
Following remodeling, 4 × 10^4 KPC CCs were seeded on top of the remodeled matrix in DMEM supplemented with 10% FBS and 1% penicillin–streptomycin and allowed to grow to confluence for 4 days, after which matrices were transferred to an air–liquid interface and CCs allowed to invade into the organotypic matrices for 12 days (Extended Data Fig. 4f). PXS-5505 (30 μM) or PXS-5120 (100 nM) was added to medium at 48-h intervals for the duration. At the end point, matrices were fixed in 10% formalin and processed for histological analysis by H&E and panCK staining. The invasive index was measured in three representative areas per matrix and the number of invaded cells per mm^2 was calculated. No statistical methods were used to predetermine sample sizes but our sample sizes are similar to those reported in previous publications[36],[39].
Extended Data Fig. 4 PXS-5505 inhibits collagen cross-linking by PDAC CAFs in vitro resulting in decreased cancer cell invasion. a. Schematic of organotypic matrix remodeling assay whereby CAFs are embedded into a 3D collagen matrix and growth media supplemented with or without PXS-5505 to inhibit lysyl oxidase family activity b. Chemical structures of lysyl oxidase family catalyzed hydroxyallysine or allysine residues and the subsequent divalent and trivalent bonds that are formed that can be quantified by mass spectrometry. c. Representative images of 3D organotypic matrix contraction by human pancreatic cancer CAFs at days 2, 6 and 12 in the absence (gray) and presence (pink) of PXS-5505 (30 µM). Scale bars = 5 mm. […] Data presented as mean values +/− SD. d. […] Data presented as mean values +/− SD. Relative fold expression of LOXL family members compared to LOX were determined by 2^–∆∆Ct approach. f. […] Comparison of measured area of matrices between control, PXS-5120 and PXS-5505 treatment groups (n = 3) over time. i. […] Representative images of invasion of KPC cancer cells into a contracted organotypic matrix as determined by H&E staining. […]

[2] = listed as value 30 (unit not given)
[3] = listed as value 60 (unit not given)
[4] = listed as value 300 (unit not given)

SMILES | processing as a substrate by DAO (DAO) | Turnover by DAO as measured by H2O2 release, mean (DAO; [2]) | Turnover by DAO as measured by H2O2 release, mean (DAO; [3]) | Turnover by DAO as measured by H2O2 release, mean (DAO; [4]) | processing as a substrate by SSAO/VAP-1 (SSAO) | Turnover by SSAO as measured by H2O2 release, mean (SSAO; [2]) | Turnover by SSAO as measured by H2O2 release, mean (SSAO; [3]) | Turnover by SSAO as measured by H2O2 release, mean (SSAO; [4]) | stiffening of 3D collagen matrices [1] | CC invasion (KPC CCs)
N#CCCN [BAPN, β-aminopropionitrile, reference compound] | oxidized | 3.75 | 4.64 | 5.888 | oxidized | 1.3236 | 1.5791 | 2.4689 |  | 
Cc1c(-c2cccc(S(=O)(=O)N(C)C)c2)c2cc(C(=O)O)ccc2n1C/C(F)=C/CN [PXS-5120, reference compound] |  |  |  |  |  |  |  |  | does not significantly block stiffening | does not lead to decreased CC invasion
